The values below come from the Kinase Knowledgebase extract (Sharma et al. 2016).

A value given as a limit tells only on which side of the number the result lay.

Sequence of MAPK14 (human) (Q16539 whole entry, looked up): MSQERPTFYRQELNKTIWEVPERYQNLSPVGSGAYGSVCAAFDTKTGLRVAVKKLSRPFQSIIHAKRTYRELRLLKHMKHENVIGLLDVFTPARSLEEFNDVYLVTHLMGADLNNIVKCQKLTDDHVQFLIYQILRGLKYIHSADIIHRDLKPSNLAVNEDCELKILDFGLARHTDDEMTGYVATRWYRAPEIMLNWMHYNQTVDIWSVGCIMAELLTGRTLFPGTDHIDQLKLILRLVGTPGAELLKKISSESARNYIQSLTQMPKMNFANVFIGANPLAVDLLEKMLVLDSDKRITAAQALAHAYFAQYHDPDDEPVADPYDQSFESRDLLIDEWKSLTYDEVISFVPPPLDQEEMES

This assay addresses MAPK14 (human) (UniProt Q16539). The experiment in a line: Cell-Based Assay. The following applies: hct-116.
For `Nc1ncc(-c2cnn(C3CCNCC3)c2)c2cc(-c3ccc4[nH]ncc4c3)oc12`, the IC50 is 100 to 1000 nM.

For `CC(=O)N1CCC(n2cc(-c3cnc(N)c4oc(-c5c[nH]c6cc(F)ccc56)cc34)cn2)CC1`, the IC50 lay in the range of 100 to 1000 nM.

As for `CC(=O)N1CCC(n2cc(-c3cnc(N)c4oc(-c5csc6ccccc56)cc34)cn2)CC1`, the IC50 was in the range of 100 to 1000 nM.

For `CC(=O)N1CCC(n2cc(-c3cnc(N)c4oc(-c5c[nH]c6cc(C#N)ccc56)cc34)cn2)CC1`, the IC50 lay within 100 to 1000 nM.

On to `CC(=O)N1CC(n2cc(-c3cnc(N)c4oc(-c5csc6cnccc56)cc34)cn2)C1`, for which the IC50 fell in the range of 100 to 1000 nM.

With `CC(=O)N1CCC(n2cc(-c3cnc(N)c4oc(-c5ccc6[nH]nc(C#N)c6c5)cc34)cn2)CC1`, the IC50 was greater than 10000 nM.

In the case of `CC(=O)N1CCC(n2cc(-c3cnc(N)c4oc(-c5cccc6c5OC(F)(F)O6)cc34)cn2)CC1`, the IC50 was in the range of 100 to 1000 nM.

The molecule `Nc1ncc(-c2cnn(C3CCNCC3)c2)c2cc(-c3csc4cnccc34)oc12` gave an IC50 of 100 to 1000 nM.

For `Nc1ncc(-c2cnn([C@@H]3C[C@@H](O)[C@@H](O)C3)c2)c2cc(-c3csc4cnccc34)oc12`, the 50% inhibitory concentration (IC50) was 100 to 1000 nM.

Consider `CC(=O)N1CCC(n2cc(-c3cnc(N)c4oc(-c5cn[nH]c5)cc34)cn2)CC1`, for which the IC50 is greater than 10000 nM.

In turn, `Nc1ncc(-c2cnn(C3CCN(CCO)CC3)c2)c2cc(-c3cccc4cnccc34)oc12` showed an IC50 of 100 to 1000 nM.

The molecule `CC(=O)N1CCC(n2cc(-c3cnc(N)c4oc(-c5ccc6c(c5)CNC6=O)cc34)cn2)CC1` had an IC50 greater than 10000 nM.

For `Nc1ncc(-c2cnn([C@H]3CC[C@H](O)CC3)c2)c2cc(-c3cc(F)cc4cnsc34)oc12`, the half-maximal inhibitory concentration (IC50) lay within 100 to 1000 nM.

`CC(=O)N1CCC(n2cc(-c3cnc(N)c4oc(-c5ccc(O)cc5C)cc34)cn2)CC1` showed an IC50 of 100 to 1000 nM.

Take `CC(C)(C)OC(=O)N1CCC(n2cc(-c3cnc(N)c4oc(-c5csc6cnccc56)cc34)cn2)CC1`: the IC50 was in the range of 100 to 1000 nM.

Consider `Nc1ncc(-c2cnn(C3CCN(CC(F)(F)F)CC3)c2)c2cc(-c3cccc4cnccc34)oc12`, for which the IC50 was 100 to 1000 nM.

`CC(=O)N1CCC(n2cc(-c3cnc(N)c4oc(-c5ccc6ncn(C)c6c5)cc34)cn2)CC1` came in with an IC50 greater than 10000 nM.

For the molecule `CNc1ncc(-c2cnn([C@H]3CC[C@H](O)CC3)c2)c2cc(-c3csc4cnccc34)oc12`, the IC50 is no more than 100 nM.

`Nc1ncc(-c2cnn(C3CCCCC3)c2)c2cc(-c3c[nH]c4cnccc34)oc12` displayed a 50% inhibitory concentration (IC50) of 100 to 1000 nM.

For the molecule `Nc1ncc(-c2cnn(C3CC4(C3)OCCO4)c2)c2cc(-c3csc4cnccc34)oc12`, the IC50 lay in the range of 100 to 1000 nM.

The molecule `Cn1cc(-c2cnc(N)c3oc(-c4cccc5cnccc45)cc23)cn1` returned an IC50 of 100 to 1000 nM.

Consider `CC(=O)N1CCC(n2cc(-c3cnc(N)c4oc(-c5cccc(OCC#N)c5)cc34)cn2)CC1`, for which the IC50 lay in the range of 100 to 1000 nM.

The molecule `C[C@]1(O)CC[C@@H](n2cc(-c3cnc(N)c4oc(-c5cccc6cnccc56)cc34)cn2)CC1` registered an IC50 of 100 to 1000 nM.

With `CN1CCC(n2cc(-c3cnc(N)c4oc(-c5cccc6cnccc56)cc34)cn2)CC1`, the IC50 was in the range of 100 to 1000 nM.

Consider `CC(=O)N1CCC(n2cc(-c3cnc(N)c4oc(-c5ccc6occc6c5)cc34)cn2)CC1`, for which the IC50 is 100 to 1000 nM.

Turning to `CCN1CCC(n2cc(-c3cnc(N)c4oc(-c5cccc6cnccc56)cc34)cn2)CC1`, the IC50 is 100 to 1000 nM.

`CSc1ccccc1-c1cc2c(-c3cnn(C4CCN(C(C)=O)CC4)c3)cnc(N)c2o1` yielded a half-maximal inhibitory concentration (IC50) of 100 to 1000 nM.

Consider `Nc1ncc(-c2cnn(C3CCN(CCF)CC3)c2)c2cc(-c3cccc4cnccc34)oc12`, for which the IC50 was in the range of 100 to 1000 nM.

Molecule `CC(=O)N1CCC(n2cc(-c3cnc(N)c4oc(-c5ccc(O)cc5)cc34)cn2)CC1` displayed an IC50 of 100 to 1000 nM.

Regarding `Nc1ncc(-c2cnn(C3CC(=O)C3)c2)c2cc(-c3csc4cnccc34)oc12`, the IC50 is 100 to 1000 nM.

`Nc1ncc(-c2cnn(C3CCNCC3)c2)c2cc(-c3cccc4cnsc34)oc12` displayed an IC50 of 100 to 1000 nM.

As for `CC(=O)N1CCC(n2cc(-c3cnc(N)c4oc(-c5ccc6scnc6c5)cc34)cn2)CC1`, the IC50 is 100 to 1000 nM.

The term IC50 denotes the midpoint of a concentration-inhibition curve. A lower IC50 goes with greater potency.
